Values after ≈ are worked out from the molar mass of the structure shown.
Legend:
[1] = Octanol-phosphate buffer partition coefficient, log D of the compound at pH 7.4 after 1 hr by shake flask method; type: physicochemical
[2] = Unbound fraction in human at 10 uM after 16 hrs by LC-MS/MS analysis; type: ADME; details: plasma
[3] = Inhibition of ATPase activity in Escherichia coli ParC/ParE by ammonium molybdate/malachite green-based absorbance assay
[4] = Inhibition of ATPase activity in Escherichia coli GyrA/GyrB by ammonium molybdate/malachite green-based absorbance assay
[5] = Inhibition of ATPase activity in Escherichia coli ParE by ammonium molybdate/malachite green-based absorbance assay
[6] = Solubility of the compound; type: physicochemical
[7] = Antibacterial activity against wild type Haemophilus influenzae Rd KW20 ATCC 51907 assessed as growth inhibition after 18 to 24 hrs by CLSI broth microdilution method; type: functional
Escherichia coli [8] = experiment: Antibacterial activity against tolC efflux pump deficient Escherichia coli W3110 assessed as growth inhibition after 18 to 24 hrs by CLSI broth microdilution method; type: functional
[9] = Antibacterial activity against Streptococcus pneumoniae D39 NCTC 7466 assessed as growth inhibition after 18 to 24 hrs by CLSI broth microdilution method; type: functional
Staphylococcus aureus [10] = experiment: Antibacterial activity against methicillin-sensitive wild type Staphylococcus aureus assessed as growth inhibition after 18 to 24 hrs by CLSI broth microdilution method; type: functional
Escherichia coli [11] = experiment: Antibacterial activity against wild type Escherichia coli W3110 assessed as growth inhibition after 18 to 24 hrs by CLSI broth microdilution method; type: functional
DNA gyrase subunit B = DNA gyrase subunit B (Staphylococcus aureus, UniProt P0A0K8); experiment: Inhibition of ATPase activity in Staphylococcus aureus GyrB tetramer in presence of Escherichia coli GyrA by ammonium molybdate/malachite green-based absorbance assay
Sequence of DNA gyrase subunit B (P0A0K8 whole entry): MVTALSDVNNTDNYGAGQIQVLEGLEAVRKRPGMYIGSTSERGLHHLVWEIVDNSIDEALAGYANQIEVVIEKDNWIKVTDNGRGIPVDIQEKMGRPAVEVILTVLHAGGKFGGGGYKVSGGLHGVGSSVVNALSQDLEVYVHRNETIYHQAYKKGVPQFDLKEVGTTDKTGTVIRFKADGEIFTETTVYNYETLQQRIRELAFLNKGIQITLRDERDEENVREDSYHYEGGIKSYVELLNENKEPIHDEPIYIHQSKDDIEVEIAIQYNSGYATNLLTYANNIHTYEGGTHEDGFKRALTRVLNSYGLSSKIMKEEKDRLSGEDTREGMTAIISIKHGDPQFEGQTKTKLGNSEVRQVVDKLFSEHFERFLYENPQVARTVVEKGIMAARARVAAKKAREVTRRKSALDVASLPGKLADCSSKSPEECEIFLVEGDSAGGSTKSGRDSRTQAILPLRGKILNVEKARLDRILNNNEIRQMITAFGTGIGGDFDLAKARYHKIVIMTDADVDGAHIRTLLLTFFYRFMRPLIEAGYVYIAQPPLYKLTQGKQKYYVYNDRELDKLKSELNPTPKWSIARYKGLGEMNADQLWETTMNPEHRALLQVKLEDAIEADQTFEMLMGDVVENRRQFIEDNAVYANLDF

Moraxella catarrhalis = experiment: Antibacterial activity against wild type Moraxella catarrhalis ATCC 43617 assessed as growth inhibition after 18 to 24 hrs by CLSI broth microdilution method; type: functional
[12] = Dissociation constant, pKa of the compound; type: physicochemical
[13] = Antibacterial activity against fluoroquinolone-resistant Streptococcus pneumoniae D39 NCTC 7466 expressing ParE/GyrB T172A mutant assessed as growth inhibition after 18 to 24 hrs by CLSI broth microdilution method; type: functional
[14] = Antibacterial activity against fluoroquinolone-resistant Streptococcus pneumoniae D39 NCTC 7466 expressing GyrA S81Y/ParC S79F double mutant assessed as growth inhibition after 18 to 24 hrs by CLSI broth microdilution method; type: functional
[15] = Antibacterial activity against fluoroquinolone-resistant Streptococcus pneumoniae D39 NCTC 7466 expressing GyrB T172A/ParE T172A double mutant assessed as growth inhibition after 18 to 24 hrs by CLSI broth microdilution method; type: functional
[16] = Antibacterial activity against fluoroquinolone-resistant Streptococcus pneumoniae D39 NCTC 7466 expressing GyrA S81F/ParC S79F double mutant assessed as growth inhibition after 18 to 24 hrs by CLSI broth microdilution method; type: functional
[17] = Antibacterial activity against fluoroquinolone-resistant Streptococcus pneumoniae D39 NCTC 7466 expressing ParE/GyrB K143I mutant assessed as growth inhibition after 18 to 24 hrs by CLSI broth microdilution method; type: functional
[18] = Antibacterial activity against fluoroquinolone-resistant Streptococcus pneumoniae D39 NCTC 7466 expressing GyrB K143A/ParE T172A double mutant assessed as growth inhibition after 18 to 24 hrs by CLSI broth microdilution method; type: functional
[19] = Antibacterial activity against fluoroquinolone-resistant Streptococcus pneumoniae D39 NCTC 7466 expressing GyrA S81F/ParC S79Y double mutant assessed as growth inhibition after 18 to 24 hrs by CLSI broth microdilution method; type: functional
[20] = Antibacterial activity against fluoroquinolone-resistant Streptococcus pneumoniae D39 NCTC 7466 expressing GyrB/ParE T172A mutant assessed as growth inhibition after 18 to 24 hrs by CLSI broth microdilution method; type: functional
Streptococcus pneumoniae = experiment: microbe, parasite or virus in culture
Description: Antibacterial activity against wild type Streptococcus pneumoniae assessed as growth inhibition after 18 to 24 hrs by CLSI broth microdilution method

Staphylococcus aureus [21] = experiment: Antibacterial activity against methicillin-resistant and […] Staphylococcus aureus assessed as growth inhibition after 18 to 24 hrs by CLSI broth microdilution method; type: functional
[22] = Clearance in rat plasma at 10 mg/kg, iv administered 15 mins of infusion measured for 0 to 24 hrs by LC-MS/MS analysis; type: ADME, organism-based; design: dose 10 mg/kg, route intravenous
[23] = Volume of distribution at steady state in rat plasma at 10 mg/kg, iv administered 15 mins of infusion measured for 0 to 24 hrs by LC-MS/MS analysis; type: ADME, organism-based; design: dose 10 mg/kg, route intravenous; details: read-out: Vdss

Row | SMILES | logD at 1 h [1] | fraction unbound at 16 h, 10 µM [2] | IC50 [3] [µM] | IC50 [4] [µM] | IC50 [5] [µM] | solubility [6] [µM] | MIC [7] [mg/L] | MIC (Escherichia coli [8]) [mg/L] | MIC [9] [mg/L] | MIC (Staphylococcus aureus [10]) [mg/L] | MIC (Escherichia coli [11]) [mg/L] | IC50 (DNA gyrase subunit B) [µM] | MIC (Moraxella catarrhalis) [mg/L] | MIC (Staphylococcus aureus [21]) [mg/L] | clearance [22] [L/h/kg] | Vd [23] [L/kg] | also measured
1 | CCNC(=O)Nc1cc(-c2nc(C(F)(F)F)cs2)c(-c2cncc(-c3c(C)noc3C)c2)cn1 | 3.5 | 0.045 | 4.8 | 0.068 | 0.053 | 6 (≈ 2.93 µg/mL) | > 9 | > 9 | 4.6 (≈ 9.42 µM) | > 9 | > 9 | 0.3 | – | – | – | – | –
2 | CCNC(=O)Nc1cc(-c2nc(C(F)(F)F)cs2)c(-c2cncc(-c3nnn[nH]3)c2)cn1 | -0.38 | 0.14 | 0.26 | < 0.01 | < 0.01 | 240 (≈ 111 µg/mL) | > 64 | 23 (≈ 49.8 µM) | 1.4 (≈ 3.03 µM) | > 64 | > 64 | < 0.01 | > 64 | – | – | – | pKa [12]: 3.7
3 | CO[C@@H]1[C@@H](OC(N)=O)[C@@H](O)[C@H](Oc2ccc3c(O)c(NC(=O)c4ccc(O)c(CC=C(C)C)c4)c(=O)oc3c2C)OC1(C)C [NOVOBIOCIN] | – | – | – | – | – | – | – | – | – | – | – | – | – | – | – | – | MIC [13]: 2 mg/L (≈ 3.26 µM); MIC [14]: 0.25 mg/L (≈ 0.408 µM); MIC [15]: 4 mg/L (≈ 6.53 µM); MIC [16]: 0.25 mg/L (≈ 0.408 µM); MIC [17]: 1 mg/L (≈ 1.63 µM); MIC [18]: 4 mg/L (≈ 6.53 µM); MIC [19]: 0.25 mg/L (≈ 0.408 µM); MIC [20]: 0.25 mg/L (≈ 0.408 µM); MIC (Streptococcus pneumoniae): 0.5 mg/L (≈ 0.816 µM)
4 | CN(C)[C@@H]1C(O)=C(C(N)=O)C(=O)[C@@]2(O)C(O)=C3C(=O)c4c(O)cccc4[C@@](C)(O)[C@H]3C[C@@H]12 [TETRACYCLINE] | – | – | – | – | – | – | – | – | – | – | – | – | – | – | – | – | MIC [13]: 0.25 mg/L (≈ 0.563 µM); MIC [14]: 0.25 mg/L (≈ 0.563 µM); MIC [15]: 0.25 mg/L (≈ 0.563 µM); MIC [16]: 0.13 mg/L (≈ 0.293 µM); MIC [17]: 0.25 mg/L (≈ 0.563 µM); MIC [18]: 0.25 mg/L (≈ 0.563 µM); MIC [19]: 0.13 mg/L (≈ 0.293 µM); MIC [20]: 0.25 mg/L (≈ 0.563 µM); MIC (Streptococcus pneumoniae): 0.25 mg/L (≈ 0.563 µM)
5 | CCNC(=O)Nc1cc(-c2nc(C(F)(F)F)cs2)c(-c2cncc(-c3nnc(C)o3)c2)cn1 | 2.4 | 0.11 | 0.51 | < 0.01 | 0.015 | 1 (≈ 0.475 µg/mL) | 33 (≈ 69.4 µM) | 0.26 (≈ 0.547 µM) | 0.05 (≈ 0.105 µM) | 0.19 (≈ 0.4 µM) | > 64 | < 0.01 | 0.37 (≈ 0.778 µM) | 0.26 (≈ 0.547 µM) | 7.38 | 3.3 | –
6 | CCNC(=O)Nc1cc(-c2nc(C(F)(F)F)cs2)c(-c2cncc(-c3noc(=O)[nH]3)c2)cn1 | 0.28 | 0.011 | 1.5 | < 0.01 | 0.011 | 830 (≈ 396 µg/mL) | > 64 | 12 (≈ 25.1 µM) | 0.74 (≈ 1.55 µM) | 48 (≈ 101 µM) | > 64 | 0.014 | 24 (≈ 50.3 µM) | 48 (≈ 101 µM) | 21.6 | 3.5 | pKa [12]: 5.4
7 | CCNC(=O)Nc1cc(-c2nc(C(F)(F)F)cs2)c(-c2cncc(C#N)c2)cn1 | 2.8 | 0.059 | 1.1 | < 0.01 | < 0.01 | 7 (≈ 2.93 µg/mL) | 21 (≈ 50.2 µM) | 0.33 (≈ 0.789 µM) | < 0.084 | 0.33 (≈ 0.789 µM) | > 64 | < 0.01 | 0.33 (≈ 0.789 µM) | 0.23 (≈ 0.55 µM) | 6.6 | 3.4 | –
8 | CCNC(=O)Nc1cc(-c2nc(C(F)(F)F)cs2)c(-c2cncc(-c3nc(C)no3)c2)cn1 | 3.4 | 0.063 | 1.4 | < 0.01 | 0.025 | < 1 | > 64 | 0.74 (≈ 1.56 µM) | < 0.095 | 0.37 (≈ 0.778 µM) | > 64 | 0.052 | 0.74 (≈ 1.56 µM) | 0.19 (≈ 0.4 µM) | 6 | 11 | –
9 | C[C@H]1COc2c(N3CCN(C)CC3)c(F)cc3c(=O)c(C(=O)O)cn1c23.C[C@H]1COc2c(N3CCN(C)CC3)c(F)cc3c(=O)c(C(=O)O)cn1c23.O [LEVOFLOXACIN] | – | – | – | – | – | – | – | – | – | 0.13 | – | – | – | 4 | – | – | MIC [13]: 0.5 mg/L; MIC [14]: 16 mg/L; MIC [15]: 0.5 mg/L; MIC [16]: 16 mg/L; MIC [17]: 1 mg/L; MIC [18]: 0.5 mg/L; MIC [19]: 32 mg/L; MIC [20]: 1 mg/L
10 | CCNC(=O)Nc1cc(-c2nc(C(F)(F)F)cs2)c(-c2cncc(C(=O)O)c2)cn1 | -0.62 | 0.082 | 0.51 | < 0.01 | < 0.01 | 800 (≈ 350 µg/mL) | > 64 | 16 (≈ 36.6 µM) | 2 (≈ 4.57 µM) | > 64 | > 64 | < 0.01 | 64 (≈ 146 µM) | – | – | – | pKa [12]: 3.7
11 | CCNC(=O)Nc1cc(-c2nc(C(F)(F)F)cs2)c(-c2cncc(/C(N)=N/O)c2)cn1 | 2.2 | 0.35 | 2 | 0.032 | 0.021 | 4 (≈ 1.81 µg/mL) | 1.4 (≈ 3.1 µM) | 0.18 (≈ 0.399 µM) | < 0.01 | 0.36 (≈ 0.797 µM) | > 64 | 0.073 | 0.18 (≈ 0.399 µM) | 0.72 (≈ 1.59 µM) | 1.32 | – | –
